In patent US20260015360A1 (MOMA Therapeutics, Inc., priority 2023, published 2026) one finds IC50 data, which are given here for 13 compounds.

Experiment [1] concerns DLD1 WT cells. As to the kind of experiment: DLD1 viability assay (CellTiter-Glo, 7 days), DLD1 WT. Format: cell-based. The note with it: Homo sapiens, DLD-1, 168 h. On the technique in general: In ATP-based viability assays light output follows the ATP content of the culture.
For experiment [2], the target named is T1, biotinylated Avi-POLΘ[2-894] (Homo sapiens, UniProt O75417).
T1 construct: 1 nM biotinylated Avi-POLΘ[2-894]
As to the kind of experiment: ATPase assay (ADP-Glo): POLΘ-mediated ATP hydrolysis. To be noted: read-out: Biochemical ATPase ADPGlo IC50. Background: In ADP-Glo the light output rises with the ADP produced.

The subject of experiment [3] is DLD1 BRCA2 (−/−) cells. As to the kind of experiment: DLD1 viability assay (CellTiter-Glo, 7 days), DLD1 BRCA2 (−/−). Format: cell-based. The note with it: Homo sapiens, DLD-1, 168 h, read-out: Viability IC50 (μM) DLD1 BRCA2 null.

For orientation: IC50 means the midpoint of a concentration-inhibition curve.

T1 sequence (O75417 2-894 limits assumed): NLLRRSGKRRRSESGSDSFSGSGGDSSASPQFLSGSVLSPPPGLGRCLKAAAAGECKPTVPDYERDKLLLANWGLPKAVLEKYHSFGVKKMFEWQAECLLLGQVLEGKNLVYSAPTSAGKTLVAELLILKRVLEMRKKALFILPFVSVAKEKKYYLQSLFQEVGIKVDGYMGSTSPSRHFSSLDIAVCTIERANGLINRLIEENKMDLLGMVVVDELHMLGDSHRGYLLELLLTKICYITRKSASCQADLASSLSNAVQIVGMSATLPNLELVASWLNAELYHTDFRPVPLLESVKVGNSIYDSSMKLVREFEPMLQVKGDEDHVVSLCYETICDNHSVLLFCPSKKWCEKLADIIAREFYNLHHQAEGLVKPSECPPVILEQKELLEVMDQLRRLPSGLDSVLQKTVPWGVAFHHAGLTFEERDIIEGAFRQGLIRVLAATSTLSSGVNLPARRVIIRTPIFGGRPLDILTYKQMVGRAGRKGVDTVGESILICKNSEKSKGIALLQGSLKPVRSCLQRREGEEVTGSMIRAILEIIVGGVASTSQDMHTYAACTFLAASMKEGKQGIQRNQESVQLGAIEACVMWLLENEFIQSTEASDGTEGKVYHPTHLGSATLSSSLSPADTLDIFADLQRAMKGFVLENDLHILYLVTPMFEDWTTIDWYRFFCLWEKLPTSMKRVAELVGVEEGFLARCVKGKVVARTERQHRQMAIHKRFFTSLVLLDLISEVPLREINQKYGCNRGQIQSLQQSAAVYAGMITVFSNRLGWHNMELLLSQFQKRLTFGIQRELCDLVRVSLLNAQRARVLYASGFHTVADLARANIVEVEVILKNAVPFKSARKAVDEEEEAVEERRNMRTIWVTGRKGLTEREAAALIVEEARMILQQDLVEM

Regarding `COc1cnc(Cl)cc1-c1cc(C)ncc1C(=O)Nc1nn2cc(C(=O)N[C@H]3CCOC3)nc2s1` [Example 291, (S)-2-(2′-chloro-5′-methoxy-6-methyl-[4,4′-bipyridine]-3-carboxamido)-N-(tetrahydrofuran-3-yl)imidazo[2,1-b][1,3,4]thiadiazole-6-carboxamide], the half-inhibitory concentration (IC50) is over 10 µM in experiment [1], 1 to 15 nM in experiment [2] and over 2 µM in experiment [3].

In the case of `COc1cnc(Cl)cc1-c1cc(C)ncc1C(=O)Nc1nn2cc(C(=O)N[C@H]3C[C@@H](O)C3)nc2s1` [Example 308], the IC50 was over 10 µM in experiment [1], 1 to 15 nM in experiment [2] and over 2 µM in experiment [3].

As for `COc1cnc(Cl)cc1-c1cc(C)ncc1C(=O)Nc1nc2ncc(N3CCO[C@H]4CCC[C@H]43)nc2s1` [Example 397, 2′-chloro-N-(6-((4aR,7aS)-hexahydrocyclopenta[b][1,4]oxazin-4(4aH)-yl)thiazolo[4,5-b]pyrazin-2-yl)-5′-methoxy-6-methyl-[4,4′-bipyridine]-3-carboxamide], the figures for the IC50 in experiment [1], in experiment [2] and in experiment [3] were over 10 µM, 1 to 15 nM and 0.001 to 0.1 µM, respectively.

`COc1cnc(Cl)cc1-c1cc(C)ncc1C(=O)Nc1nc2ncc([C@H]3CC[C@H](C#N)CC3)nc2s1` [Example 454, 2′-chloro-N-(6-((1r,4r)-4-cyanocyclohexyl)thiazolo[4,5-b]pyrazin-2-yl)-5′-methoxy-6-methyl-[4,4′-bipyridine]-3-carboxamide]: the IC50 was over 10 µM in experiment [1], 1 to 15 nM in experiment [2] and 0.001 to 0.1 µM in experiment [3].

With `COc1cnc(Cl)cc1-c1cc(C)ncc1C(=O)Nc1nc2ncc([C@@H]3CC[C@H](CO)C3)nc2s1` [Example 499, 2′-chloro-N-(6-((1R,3S)-3-(hydroxymethyl)cyclopentyl)thiazolo[4,5-b]pyrazin-2-yl)-5′-methoxy-6-methyl-[4,4′-bipyridine]-3-carboxamide], the IC50 in experiment [1] was over 10 µM; in experiment [2] it was 1 to 15 nM; in experiment [3] it was 0.1 to 0.25 µM.

With `COc1cnc(Cl)cc1-c1cc(C)ncc1C(=O)Nc1nc2ncc(N3CCC(OC(F)F)CC3)nc2s1` [Example 502, 2′-chloro-N-(6-(4-(difluoromethoxy)piperidin-1-yl)thiazolo[4,5-b]pyrazin-2-yl)-5′-methoxy-6-methyl-[4,4′-bipyridine]-3-carboxamide], the IC50 in experiment [1] is over 10 µM; in experiment [2], 1 to 15 nM; in experiment [3], 0.001 to 0.1 µM.

In the case of `COc1cnc(Cl)cc1-c1cc(C)ncc1C(=O)Nc1nc2ncc(N3CCC(O)(C(F)F)CC3)nc2s1` [Example 504, 2′-chloro-N-(6-(4-(difluoromethyl)-4-hydroxypiperidin-1-yl)thiazolo[4,5-b]pyrazin-2-yl)-5′-methoxy-6-methyl-[4,4′-bipyridine]-3-carboxamide], the IC50 is over 10 µM in experiment [1], 1 to 15 nM in experiment [2] and 0.001 to 0.1 µM in experiment [3].

Regarding `COc1cnc(Cl)cc1-c1cc(C)ncc1C(=O)Nc1nc2ncc(N3CCC(CO)CC3)nc2s1` [Example 506, 2′-chloro-N-(6-(4-(hydroxymethyl)piperidin-1-yl)thiazolo[4,5-b]pyrazin-2-yl)-5′-methoxy-6-methyl-[4,4′-bipyridine]-3-carboxamide], the half-inhibitory concentration (IC50) is over 10 µM in experiment [1], 1 to 15 nM in experiment [2] and 0.001 to 0.1 µM in experiment [3].

As to `COc1nc2c(cc1-c1cc(C)ncc1C(=O)Nc1nc3ncc(-c4ccncc4)nc3s1)OCCN2C` [Example 507, 4-(6-methoxy-4-methyl-3,4-dihydro-2H-pyrido[3,2-b][1,4]oxazin-7-yl)-6-methyl-N-(6-(pyridin-4-yl)thiazolo[4,5-b]pyrazin-2-yl)nicotinamide], the IC50 was over 10 µM in experiment [1], 1 to 15 nM in experiment [2] and 0.1 to 0.25 µM in experiment [3].

Take `COc1cnc(Cl)cc1-c1cc(C)ncc1C(=O)Nc1nc2ncc(N3CCC(C)(O)CC3)nc2s1` [Example 509, 2′-chloro-N-(6-(4-hydroxy-4-methylpiperidin-1-yl)thiazolo[4,5-b]pyrazin-2-yl)-5′-methoxy-6-methyl-[4,4′-bipyridine]-3-carboxamide]: the 50% inhibitory concentration (IC50) was over 10 µM in experiment [1], 1 to 15 nM in experiment [2] and 0.001 to 0.1 µM in experiment [3].

`COc1cnc(Cl)cc1-c1cc(C)ncc1C(=O)Nc1nc2ncc(N3CCC(O)(C(F)(F)F)CC3)nc2s1` [Example 511, 2′-chloro-N-(6-(4-hydroxy-4-(trifluoromethyl)piperidin-1-yl)thiazolo[4,5-b]pyrazin-2-yl)-5′-methoxy-6-methyl-[4,4′-bipyridine]-3-carboxamide]: the figures for the IC50 in experiment [1], in experiment [2] and in experiment [3] were 2.5 to 5 µM, 1 to 15 nM and 0.001 to 0.1 µM, respectively.

With `COc1cnc(Cl)cc1-c1cc(C)ncc1C(=O)Nc1nc2ncc(C3CCOCC3)nc2s1` [Example 512, 2′-chloro-5′-methoxy-6-methyl-N-(6-(tetrahydro-2H-pyran-4-yl)thiazolo[4,5-b]pyrazin-2-yl)-[4,4′-bipyridine]-3-carboxamide], the IC50 is over 10 µM in experiment [1], 1 to 15 nM in experiment [2] and 0.001 to 0.1 µM in experiment [3].

Take `COc1cnc(Cl)cc1-c1cc(C)ncc1C(=O)Nc1nc2ncc(N3CCC(OC)CC3)nc2s1` [Example 514, 2′-chloro-5′-methoxy-N-(6-(4-methoxypiperidin-1-yl)thiazolo[4,5-b]pyrazin-2-yl)-6-methyl-[4,4′-bipyridine]-3-carboxamide]: the IC50 was over 10 µM in experiment [1], 1 to 15 nM in experiment [2] and 0.001 to 0.1 µM in experiment [3].
